Earlier results on five compounds are cited in US20050192272A1, “Substituted benzodiazepines as inhibitors of the chemokine receptor CXCR4” (priority 2003, published 2005).

What is called IC50 is the concentration at which inhibition is half-maximal.

The conditions of series [1]: Phase I/II clinical trials.
The conditions of series [2]: rats.
The next series addresses CXCR4 (Homo sapiens, UniProt P61073). The conditions noted are these: read-out: IC50 in inhibiting the binding of CXCL12 to CXCR4.

Sequence of CXCR4 (P61073 whole entry): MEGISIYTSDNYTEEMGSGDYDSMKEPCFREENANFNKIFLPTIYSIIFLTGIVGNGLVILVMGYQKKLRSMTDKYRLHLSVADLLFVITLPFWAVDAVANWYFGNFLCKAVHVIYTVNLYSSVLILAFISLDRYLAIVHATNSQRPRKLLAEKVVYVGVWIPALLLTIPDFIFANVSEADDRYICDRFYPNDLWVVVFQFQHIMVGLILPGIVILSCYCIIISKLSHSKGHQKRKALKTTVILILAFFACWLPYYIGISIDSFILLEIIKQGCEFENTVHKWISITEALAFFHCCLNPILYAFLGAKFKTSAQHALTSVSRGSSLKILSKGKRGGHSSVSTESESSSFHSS

Turning to `c1cc(CN2CCCNCCNCCCNCC2)ccc1CN1CCCNCCNCCCNCC1` [ALX40-4C], the acute cardiac toxicity entry (month-long clinical study, 1995) is reported as “did not exhibit any acute cardiac toxicity”. Besides, for the setting “one-month Phase I/II clinical study”, the adverse side effects entry was “no adverse side effects”.

`c1cc(CN2CCCNCCNCCCNCC2)ccc1CN1CCCNCCNCCCNCC1` [AMD3100]: in series [1], the cardiac toxicity result is recorded as “exhibited certain cardiac toxicity properties” and the effectiveness result was “limited effectiveness”.

For the compound `C[C@H](NC(=O)[C@H](CCCNC(=N)N)NC(=O)c1ccc(CNCc2ccccn2)cc1)c1cccc2ccccc12` [KRH-1636], the “absorption from the duodenum” value in series [2] is given as “absorbed from the duodenum in rats”.

In the case of “[Tyr^5,12, Lys^7]-polyphemusin II [T-22]”, the “inhibition of multiplication of X4-strains of HIV” value in the series on X4-strains of HIV (through specific binding to the CXCR4 receptor) is recorded as “strongly inhibit”.

Take c(Nal-Gly-tyr-Arg-Arg) [FC131]: the half-maximal inhibitory concentration (IC50) on CXCR4 was 4 nM. Also, the “level of anti-HIV activity and antagonism among CXCR4 antagonists reported to date” value in the series with X4-strains of HIV is recorded as “matched”.
